According to patent publication US8163740B2, “6-substituted benzoxazines” (Hoffmann-La Roche Inc., priority 2008, dated 2012):
pKi: −log10 of the molar value.

What follows are compounds tested against recombinant human 5-HT5A receptor (Homo sapiens, UniProt P47898) (assay: [3H]LSD radioligand binding assay). Details: [3H]LSD (approximately 1 nM); membranes from HEK-EBNA cells transiently expressing 5-HT5A; Ki by Cheng-Prussoff equation; read-out: Ki.
Sequence of recombinant human 5-HT5A receptor (P47898 whole entry): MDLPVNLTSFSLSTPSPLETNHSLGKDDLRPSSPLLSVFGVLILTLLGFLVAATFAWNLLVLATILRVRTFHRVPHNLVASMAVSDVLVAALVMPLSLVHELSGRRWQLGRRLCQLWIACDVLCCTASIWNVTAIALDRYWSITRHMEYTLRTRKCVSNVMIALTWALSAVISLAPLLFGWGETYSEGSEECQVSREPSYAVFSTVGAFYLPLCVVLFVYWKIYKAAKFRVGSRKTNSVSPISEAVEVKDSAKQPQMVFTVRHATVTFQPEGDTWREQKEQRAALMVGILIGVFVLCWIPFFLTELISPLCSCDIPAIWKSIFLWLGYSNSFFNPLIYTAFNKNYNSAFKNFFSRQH
Method: A [^3H]LSD radioligand binding assay was used to determine the affinity of the compounds for the recombinant human 5-HT5A receptor, in membranes from transiently (cDNA) expressed 5-HT5A receptors in Human Embryonic Kidney-EBNA (HEK-EBNA) cells. Assay buffer consisted of Tris (50 mM) buffer containing 1 mM EGTA, 10 mM MgCl2 (pH 7.4) and 10 μM pargyline. The binding assay was carried out in 96-well-plates in the presence of [^3H]LSD (approximately 1 nM), approximately 2 μg/well of membrane protein, and 0.5 mg of Ysi-poly-1-lysine SPA beads in a final volume of 200 μl of buffer. Non-specific binding was defined using methiothepin 2 μM. Compounds were tested at 10 concentrations. All assays were conducted in duplicate and repeated at least two times. Assay plates were incubated for 120 min at room temperature before centrifugation. Bound ligand was determined using a Packard Topcount scintillation counter. IC50 values were calculated using a non-linear curve fitting program and Ki values calculated using the Cheng-Prussoff equation.
A pKi of 8.36 was found for `O=S(=O)(Nc1ccc2c(c1)COC(N[C@@H]1CCc3ccccc31)=N2)N1CCOCC1` [Example 31, Morpholine-4-sulfonic acid [2-((R)-indan-1-ylamino)-4H-benzo[d][1,3]oxazin-6-yl]-amide] in this work. A pKi of 7.50 was found for `c1c[nH]c(CNc2ccc3c(c2)COC(NC2CCCCCC2)=N3)n1` [Example 105, N^2-Cycloheptyl-N^6-(1H-imidazol-2-ylmethyl)-4H-benzo[d][1,3]oxazine-2,6-diamine] in this work. A pKi of 8.67 was found for `CN1CCN(CC(=O)Nc2ccc3c(c2)COC(NC2CCCCCCC2)=N3)CC1` [Example 156, N-(2-Cyclooctylamino-4H-benzo[d][1,3]oxazin-6-yl)-2-(4-methyl-piperazin-1-yl)-acetamide] in this work. A pKi of 7.39 was found for `O=C(CN1CCOCC1)Nc1ccc2c(c1)COC(NC1COc3cc(F)ccc31)=N2` (racemic) [Example 45, rac-N-[2-(6-Fluoro-2,3-dihydro-benzofuran-3-ylamino)-4H-benzo[d][1,3]oxazin-6-yl]-2-morpholin-4-yl-acetamide] in this work. A pKi of 8.53 was found for `COc1cccc2c1C(NC1=Nc3ccc(NC(=O)NC(C)C)cc3CO1)CO2` (racemic) [Example 16, rac-1-Isopropyl-3-[2-(4-methoxy-2,3-dihydro-benzofuran-3-ylamino)-4H-benzo[d][1,3]oxazin-6-yl]-urea] in this work. A pKi of 8.21 was found for `COc1ccccc1CNC1=Nc2ccc(NC(=O)CN3CCN(C)CC3)cc2CO1` [Example 26, N-[2-(2-Methoxy-benzylamino)-4H-benzo[d][1,3]oxazin-6-yl]-2-(4-methyl-piperazin-1-yl)-acetamide] in this work. A pKi of 8.03 was found for `CC(C)(O)CNCC(=O)Nc1ccc2c(c1)COC(N[C@@H]1CCc3ccccc31)=N2` [Example 68, 2-(2-Hydroxy-2-methyl-propylamino)-N-[2-((R)-indan-1-ylamino)-4H-benzo[d][1,3]oxazin-6-yl]-acetamide] in this work. A pKi of 8.11 was found for `COc1cccc2c1C(NC1=Nc3ccc(N)cc3CO1)CO2` (racemic) [Example 6, rac-N^2-(4-Methoxy-2,3-dihydro-benzofuran-3-yl)-4H-benzo[d][1,3]oxazine-2,6-diamine] in this work. A pKi of 8.39 was found for `CN(C)S(=O)(=O)Nc1ccc2c(c1)COC(NC1CCc3cc(F)ccc31)=N2` (racemic) [Example 64, rac-N,N-(Dimethyl)-N′-{2-(5-Fluoro-indan-1-ylamino)-4H-benzo[d][1,3]oxazin-6-yl}-sulfamide] in this work. A pKi of 8.34 was found for `COc1cccc2c1C(NC1=Nc3ccc(Nc4nnn(C(C)(C)C)n4)cc3CO1)CC2` (racemic) [Example 112, rac-N^6-(2-tert-Butyl-2H-tetrazol-5-yl)-N^2-(7-methoxy-indan-1-yl)-4H-benzo[d][1,3]oxazine-2,6-diamine] in this work. A pKi of 6.94 was found for `CC(C)NC(=O)Nc1ccc2c(c1)COC(Nc1cccc(C3CC3)c1)=N2` [Example 151, 1-[2-(3-Cyclopropyl-phenylamino)-4H-benzo[d][1,3]oxazin-6-yl]-3-isopropyl-urea] in this work. A pKi of 7.57 was found for `COc1cccc2c1C(NC1=Nc3ccc(C#N)cc3CO1)CC2` (racemic) [Example 142, rac-2-(7-Methoxy-indan-1-ylamino)-4H-benzo[d][1,3]oxazine-6-carbonitrile] in this work. A pKi of 7.57 was found for `COc1cccc2c1C(NC1=Nc3ccc(NS(=O)(=O)N4CCCCC4)cc3CO1)CO2` (racemic) [Example 50, rac-Piperidine-1-sulfonic acid [2-(4-methoxy-2,3-dihydro-benzofuran-3-ylamino)-4H-benzo[d][1,3]oxazin-6-yl]-amide] in this work. A pKi of 7.80 was found for `N#Cc1ccc2c(c1)COC(N[C@@H]1CCc3ccccc31)=N2` [Example 117, 2-((R)-Indan-1-ylamino)-4H-benzo[d][1,3]oxazine-6-carbonitrile] in this work. A pKi of 8.44 was found for `CC(=O)Nc1ccc2c(c1)COC(N[C@@H]1CCc3ccccc31)=N2` [Example 48, N-[2-((R)-Indan-1-ylamino)-4H-benzo[d][1,3]oxazin-6-yl]-acetamide] in this work. A pKi of 8.26 was found for `O=C(Nc1ccc2c(c1)COC(NC1CCCCCC1)=N2)C1CC1` [Example 95, Cyclopropanecarboxylic acid (2-cycloheptylamino-4H-benzo[d][1,3]oxazin-6-yl)-amide] in this work. A pKi of 7.14 was found for `CN(C)S(=O)(=O)Nc1ccc2c(c1)COC(Nc1cccc(C3CC3)c1)=N2` [Example 135, N′-{2-[(3-cyclopropylphenyl)amino]-4H-benzo[d][1,3]oxazin-6-yl}-N,N-dimethylsulfamide] in this work. A pKi of 8.22 was found for `COc1cccc2c1C(NC1=Nc3ccc(NC(=O)N(C)C4CCN(C(C)C)CC4)cc3CO1)CO2` (racemic) [Example 15, rac-1-(1-Isopropyl-piperidin-4-yl)-3-[2-(4-methoxy-2,3-dihydro-benzofuran-3-ylamino)-4H-benzo[d][1,3]oxazin-6-yl]-1-methyl-urea] in this work. A pKi of 7.42 was found for `Nc1ccc2c(c1)COC(Nc1cccc(C3CC3)c1)=N2` [Example 119, N^2-(3-Cyclopropyl-phenyl)-4H-benzo[d][1,3]oxazine-2,6-diamine] in this work. A pKi of 8.48 was found for `CC(C)N1CCC(NC(=O)Nc2ccc3c(c2)COC(NC2CCCCCC2)=N3)CC1` [Example 124, 1-(2-Cycloheptylamino-4H-benzo[d][1,3]oxazin-6-yl)-3-(1-isopropyl-piperidin-4-yl)-urea] in this work. A pKi of 7.54 was found for `CN1CCN(S(=O)(=O)Nc2ccc3c(c2)COC(N[C@@H]2CCc4ccccc42)=N3)CC1` [Example 72, 4-Methyl-piperazine-1-sulfonic acid [2-((R)-indan-1-ylamino)-4H-benzo[d][1,3]oxazin-6-yl]-amide] in this work. A pKi of 8.32 was found for `COCC(=O)Nc1ccc2c(c1)COC(NC1CCc3cccc(OC)c31)=N2` (racemic) [Example 24, rac-2-Methoxy-N-[2-(7-methoxy-indan-1-ylamino)-4H-benzo[d][1,3]oxazin-6-yl]-acetamide] in this work. A pKi of 7.63 was found for `COc1cccc2c1C(NC1=Nc3ccc(NC(C)=O)cc3CO1)CO2` (racemic) [Example 51, rac-N-[2-(4-Methoxy-2,3-dihydro-benzofuran-3-ylamino)-4H-benzo[d][1,3]oxazin-6-yl]-acetamide] in this work. A pKi of 7.89 was found for `O=C(CN1CCOCC1)Nc1ccc2c(c1)COC(NC1CCc3cc(F)ccc31)=N2` (racemic) [Example 56, rac-N-[2-(5-Fluoro-indan-1-ylamino)-4H-benzo[d][1,3]oxazin-6-yl]-2-morpholin-4-yl-acetamide] in this work. A pKi of 8.17 was found for `Fc1ccc2c(c1)CCC2NC1=Nc2ccc(Nc3nccc(C(F)(F)F)n3)cc2CO1` (racemic) [Example 58, rac-N^2-(5-Fluoro-indan-1-yl)-N^6-(4-trifluoromethyl-pyrimidin-2-yl)-4H-benzo[d][1,3]oxazine-2,6-diamine] in this work. A pKi of 8.08 was found for `O=C(Nc1ccc2c(c1)COC(NC1CCOc3ccccc31)=N2)C1CC1` (racemic) [Example 90, rac-Cyclopropanecarboxylic acid [2-(chroman-4-ylamino)-4H-benzo[d][1,3]oxazin-6-yl]-amide] in this work. A pKi of 8.08 was found for `COc1cccc2c1C(NC1=Nc3ccc(NS(C)(=O)=O)cc3CO1)CC2` (racemic) [Example 102, rac-N-[2-(7-Methoxy-indan-1-ylamino)-4H-benzo[d][1,3]oxazin-6-yl]-methanesulfonamide] in this work. A pKi of 7.78 was found for `Nc1ccc2c(c1)COC(NC1CCCCCC1)=N2` [Example 92, N^2-Cycloheptyl-4H-benzo[d][1,3]oxazine-2,6-diamine] in this work. A pKi of 8.03 was found for `COc1cccc2c1C(NC1=Nc3ccc(NC(=O)CN4CCN(C(C)C)CC4)cc3CO1)CO2` (racemic) [Example 12, rac-2-(4-Isopropyl-piperazin-1-yl)-N-[2-(4-methoxy-2,3-dihydro-benzofuran-3-ylamino)-4H-benzo[d][1,3]oxazin-6-yl]-acetamide] in this work. A pKi of 9.08 was found for `O=C(Nc1ccc2c(c1)COC(N[C@@H]1CCc3ccccc31)=N2)C1CC1` [Example 18, Cyclopropanecarboxylic acid [2-((R)-indan-1-ylamino)-4H-benzo[d][1,3]oxazin-6-yl]-amide] in this work. A pKi of 7.48 was found for `O=C(CN1CCN(CC(F)(F)F)CC1)Nc1ccc2c(c1)COC(N[C@@H]1CCc3ccccc31)=N2` [Example 70, N-[2-((R)-Indan-1-ylamino)-4H-benzo[d][1,3]oxazin-6-yl]-2-[4-(2,2,2-trifluoro-ethyl)-piperazin-1-yl]-acetamide] in this work. A pKi of 8.53 was found for `COc1ccccc1CNC1=Nc2ccc(NC(=O)C3CC3)cc2CO1` [Example 7, Cyclopropanecarboxylic acid [2-(2-methoxy-benzylamino)-4H-benzo[d][1,3]oxazin-6-yl]-amide] in this work. A pKi of 6.43 was found for `COc1cccc2c1C(NC1=Nc3ccc([N+](=O)[O-])cc3CO1)CO2` (racemic) [Example 5, rac-(4-Methoxy-2,3-dihydro-benzofuran-3-yl)-(6-nitro-4H-benzo[d][1,3]oxazin-2-yl)-amine] in this work. A pKi of 8.11 was found for `Nc1ccc2c(c1)COC(N[C@@H]1CCCc3ccccc31)=N2` [Example 33, (R)-N^2-(1,2,3,4-Tetrahydro-naphthalen-1-yl)-4H-benzo[d][1,3]oxazine-2,6-diamine] in this work. A pKi of 8.24 was found for `COc1cccc2c1C(NC1=Nc3ccc(NC(=O)CN4CCN(C)CC4)cc3CO1)CO2` (racemic) [Example 9, rac-N-[2-(4-Methoxy-2,3-dihydro-benzofuran-3-ylamino)-4H-benzo[d][1,3]oxazin-6-yl]-2-(4-methyl-piperazin-1-yl)-acetamide] in this work. A pKi of 8.27 was found for `CC(C)N1CCC(NC(=O)Nc2ccc3c(c2)COC(Nc2cccc(C4CC4)c2)=N3)CC1` [Example 137, 1-[2-(3-Cyclopropyl-phenylamino)-4H-benzo[d][1,3]oxazin-6-yl]-3-(1-isopropyl-piperidin-4-yl)-urea] in this work.
